Measurements taken from paper PMC12057046, “Elucidation of short linear motif-based interactions of the MIT and rhodanese domains of the ubiquitin-specific protease 8” (Biology Direct, 2025).

System: USP8 MIT domain
Experiment: Peptide-phage display-based deep mutational scanning (DMS), USP8 MIT domain
Format: binding, human
Conditions: bait USP8_MIT__P40818_1_142; EFCAB12 (Q6NXP0) 2-17; pair of mutant with wild-type wt_00016 (MDDDYEAYHSLFLSLL); sheet S3.B_ProP-PD_pairs
Experimental: The residues of these 16 amino acid-long wild-type peptides were substituted to all natural amino acid residues, except cysteine, in all positions (Supplementary Table S2A). The designed peptide sequences were reverse-translated to oligonucleotides optimized to the codon usage of E. coli. The required flanking regions (5´[…] and 3´[…]) were added for library construction. The library was generated as previously described.
Four rounds of phage selections were carried out using the second generation human disorderome library or the constructed deep mutational scanning library. At least three individual replicates were used for each bait protein. 10 µg of GST-tagged proteins or GST control (diluted in PBS from the stock of proteins kept in the purification elution buffer) were immobilized in 100 µL PBS on a 96-well MaxiSorp (Nunc) plate overnight at 4 °C. The plates were incubated with blocking buffer (with 0.5% BSA in PBS) for 1 h at 4 °C followed by washing with 0.05% Tween 20 in PBS four times. The naïve phage library (10^11 CFU) was diluted in 1/5th volume PEG/NaCl (20% PEG-8000, 0.4 M NaCl) and 1X PBS, incubated on ice for 10 min and centrifuged at 10,000 [drawing 3] g for 10 min. The pellet was resuspended in the volume of PBS (100 µL/ well). The GST-coated control plate was incubated with 100 µL library per well in PBS for 1 h at 4 °C to remove non-specific binders. The supernatant was transferred to the target wells and incubated for 2 h at 4 °C. The wells were washed five times with 0.05% Tween 20 in PBS and the bound phages were eluted with 100 µL per well log-phase E. coli OmniMAX by incubating at 37° C while shaking. After 30 min, M13KO7 helper phages were added and incubated for an additional 45 min. The bacterial cultures were transferred to 1 mL 2YT supplemented with 100 µg/mL carbenicillin, 30 µg/mL kanamycin and 0.3 mM IPTG and grew overnight at 37 °C while shaking. The following day the cultures were centrifuged for 10 min at 2,000 [drawing 4] g, 4 °C. 1/10th volume of 10 [drawing 5] PBS was added to adjust the pH and heated at 65 °C for 10 min. The phage pools from each round were used as in-phages for the next round of selections.
The samples were prepared for NGS as previously described. Peptide-coding regions of the enriched phage pools were amplified and barcoded using Phusion High-Fidelity PCR Master Mix (Thermo Fisher) for 22 cycles and confirmed by 2% agarose gel electrophoresis. The PCR products were normalized with 25 µL Mag-bind Total Pure NGS beads (Omega Biotek) and 10 µL of each eluted sample (Qiagen Elution Buffer) was pooled and cleaned-up with a PCR purification kit (Qiagen). The PCR product was confirmed by 2% agarose electrophoresis and the band was extracted with QIAquick Gel extraction Kit (Qiagen) and eluted with 30 µL TE buffer. The dsDNA was quantified using QuantiT PicoGreen dsDNA Assay Kit (Thermo Fisher) and sent for NGS (Illumina MiSeq v3, 1 × 150 bp read setup, 20% PhiX, NGI SciLifeLab facility, Sweden). The NGS data were demultiplexed, adapter regions were trimmed and sequences with an average quality of at least 20 were translated to peptide sequences. The NGS data were analysed using custom Python scripts. The total read NGS counts for each selection experiment of each peptide sequence were compiled and annotated in PepTools (https://slim.icr.ac.uk/tools/peptools/). Since ProP-PD is in essence a competition assay, the possibility of the input phage library influencing the selection outcome was explored. For this, the Pearson correlation coefficient, p-value and coefficient of determination were calculated for all peptide NGS count fractions in the library coverage vs. in the selections results (Supplementary Fig. S7; Supplementary Table S2B; Supplementary Table S3B; Supplementary Table S7B). Pearson correlation coefficient and p-value were calculated using Python’s SciPy library. […]

Compared with MADDYEAYHSLFLSLL [mut_04339], MDADYEAYHSLFLSLL [mut_04357] is lower in hit_pair_ratio: 13.05 for the first, 1.08 for the second.

First: MDDDAEAYHSLFLSLL [mut_04393]
Second: MDDDDEAYHSLFLSLL [mut_04394]
The hit_pair_ratio of the first is higher: 42.41 for the first, 12.10 for the second.

Going from MDDDFEAYHSLFLSLL [mut_04396] to MDDDGEAYHSLFLSLL [mut_04397], the hit_pair_ratio falls from 37.55 to 12.55.

Compared with MDDDHEAYHSLFLSLL [mut_04398], MDDDIEAYHSLFLSLL [mut_04399] is lower in hit_pair_ratio: 169.63 for the first, 3.38 for the second.

First: MDDDKEAYHSLFLSLL [mut_04400]
Second: MDDDLEAYHSLFLSLL [mut_04401]
The hit_pair_ratio of the first is lower: 168.96 for the first, 337.92 for the second.

Going from MDDDQEAYHSLFLSLL [mut_04405] to MDDDVEAYHSLFLSLL [mut_04409], the hit_pair_ratio rises from 14.11 to 337.92.

Compared with MDDDWEAYHSLFLSLL [mut_04410], MDDDYAAYHSLFLSLL [mut_04411] is lower in hit_pair_ratio: 56.54 for the first, 3.89 for the second.

Going from MDDDYDAYHSLFLSLL [mut_04412] to MDDDYEDYHSLFLSLL [mut_04429], the hit_pair_ratio falls from 12.14 to 4.40.

Going from MDDDYEEYHSLFLSLL [mut_04430] to MDDDYEFYHSLFLSLL [mut_04431], the hit_pair_ratio rises from 4.58 to 83.09.

First: MDDDYEGYHSLFLSLL [mut_04432]
Second: MDDDYEIYHSLFLSLL [mut_04434]
The hit_pair_ratio of the first is lower: 1.19 for the first, 18.85 for the second.

Compared with MDDDYEKYHSLFLSLL [mut_04435], MDDDYELYHSLFLSLL [mut_04436] is lower in hit_pair_ratio: 48.44 for the first, 7.38 for the second.

First: MDDDYEMYHSLFLSLL [mut_04437]
Second: MDDDYENYHSLFLSLL [mut_04438]
The hit_pair_ratio of the first is higher: 59.15 for the first, 2.33 for the second.

Compared with MDDDYEPYHSLFLSLL [mut_04439], MDDDYEQYHSLFLSLL [mut_04440] is higher in hit_pair_ratio: 9.13 for the first, 112.94 for the second.

Going from MDDDYERYHSLFLSLL [mut_04441] to MDDDYESYHSLFLSLL [mut_04442], the hit_pair_ratio falls from 84.82 to 37.68.

Compared with MDDDYETYHSLFLSLL [mut_04443], MDDDYEVYHSLFLSLL [mut_04444] is lower in hit_pair_ratio: 112.94 for the first, 28.27 for the second.

Compared with MDDDYFAYHSLFLSLL [mut_04413], MDDDYGAYHSLFLSLL [mut_04414] is lower in hit_pair_ratio: 168.96 for the first, 33.85 for the second.

First: MDDDYHAYHSLFLSLL [mut_04415]
Second: MDDDYIAYHSLFLSLL [mut_04416]
The hit_pair_ratio of the first is higher: 84.48 for the first, 56.54 for the second.

Going from MDDDYLAYHSLFLSLL [mut_04418] to MDDDYMAYHSLFLSLL [mut_04419], the hit_pair_ratio rises from 84.82 to 112.64.

Compared with MDDDYNAYHSLFLSLL [mut_04420], MDDDYPAYHSLFLSLL [mut_04421] is lower in hit_pair_ratio: 2.54 for the first, 1.34 for the second.

Compared with MDDDYQAYHSLFLSLL [mut_04422], MDDDYSAYHSLFLSLL [mut_04424] is higher in hit_pair_ratio: 12.11 for the first, 84.48 for the second.

Going from MDDDYTAYHSLFLSLL [mut_04425] to MDDDYVAYHSLFLSLL [mut_04426], the hit_pair_ratio rises from 48.27 to 112.64.

Same assay, conditions: sheet S3.B_ProP-PD_pairs; bait USP8_MIT__P40818_1_142; ratio within the wild-type/mutant pair, larger over smaller averaged fraction (direction from fraction_wt and fraction_mut)

Going from LEVSDIESRIAALRAA to MDDDYEAFHSLFLSLL, the hit_pair_ratio rises from 16.71 to 25.99.

Going from MDDDYEAIHSLFLSLL to MDDDYEALHSLFLSLL, the hit_pair_ratio falls from 132.20 to 56.39.

Compared with MDDDYEAMHSLFLSLL, MDDDYEANHSLFLSLL is lower in hit_pair_ratio: 337.92 for the first, 42.28 for the second.

Going from MDDDYEASHSLFLSLL to MDDDYEATHSLFLSLL, the hit_pair_ratio falls from 112.64 to 17.79.

First: MDDDYEAVHSLFLSLL
Second: MDDDYEAWHSLFLSLL
The hit_pair_ratio of the first is higher: 48.27 for the first, 1.40 for the second.

First: MDDDYEAYASLFLSLL
Second: MDDDYEAYDSLFLSLL
The hit_pair_ratio of the first is lower: 5.54 for the first, 337.92 for the second.

First: MDDDYEAYFSLFLSLL
Second: MDDDYEAYHALFLSLL
The hit_pair_ratio of the first is lower: 29.21 for the first, 168.96 for the second.

Going from MDDDYEAYHDLFLSLL to MDDDYEAYHELFLSLL, the hit_pair_ratio rises from 11.69 to 112.94.

First: MDDDYEAYHGLFLSLL
Second: MDDDYEAYHHLFLSLL
The hit_pair_ratio of the first is lower: 10.26 for the first, 11.27 for the second.

Compared with MDDDYEAYHKLFLSLL, MDDDYEAYHLLFLSLL is lower in hit_pair_ratio: 169.63 for the first, 17.79 for the second.

Going from MDDDYEAYHMLFLSLL to MDDDYEAYHNLFLSLL, the hit_pair_ratio falls from 7.51 to 1.00.

Compared with MDDDYEAYHPLFLSLL, MDDDYEAYHQLFLSLL is higher in hit_pair_ratio: 19.88 for the first, 337.92 for the second.

Going from MDDDYEAYHRLFLSLL to MDDDYEAYHSGFLSLL, the hit_pair_ratio rises from 41.80 to 337.92.

Compared with MDDDYEAYHSHFLSLL, MDDDYEAYHSIFLSLL is lower in hit_pair_ratio: 24.22 for the first, 10.94 for the second.

Compared with MDDDYEAYHSKFLSLL, MDDDYEAYHSLALSLL is higher in hit_pair_ratio: 169.63 for the first, 337.92 for the second.

Compared with MDDDYEAYHSLFGSLL, MDDDYEAYHSLFISLL is lower in hit_pair_ratio: 337.92 for the first, 5.63 for the second.

First: MDDDYEAYHSLFLALL
Second: MDDDYEAYHSLFLFLL
The hit_pair_ratio of the first is lower: 2.81 for the first, 5.36 for the second.

Going from MDDDYEAYHSLFLHLL to MDDDYEAYHSLFLLLL, the hit_pair_ratio rises from 2.92 to 4.48.

Compared with MDDDYEAYHSLFLMLL, MDDDYEAYHSLFLNLL is higher in hit_pair_ratio: 26.03 for the first, 33.93 for the second.

MDDDYEAYHSLFLPLL and MDDDYEAYHSLFLSAL are the same in hit_pair_ratio: 337.92 for the first, 337.92 for the second.

First: MDDDYEAYHSLFLSGL
Second: MDDDYEAYHSLFLSHL
The hit_pair_ratio of the first is higher: 337.92 for the first, 84.48 for the second.

Going from MDDDYEAYHSLFLSLF to MDDDYEAYHSLFLSLI, the hit_pair_ratio falls from 169.63 to 168.96.

Going from MDDDYEAYHSLFLSLK to MDDDYEAYHSLFLSPL, the hit_pair_ratio rises from 19.88 to 33.79.

MDDDYEAYHSLFLSQL and MDDDYEAYHSLFLSRL are the same in hit_pair_ratio: 337.92 for the first, 337.92 for the second.

First: MDDDYEAYHSLFLSSL
Second: MDDDYEAYHSLFLTLL
The hit_pair_ratio of the first is higher: 337.92 for the first, 2.44 for the second.

Compared with MDDDYEAYHSLFLWLL, MDDDYEAYHSLFLYLL is higher in hit_pair_ratio: 2.95 for the first, 8.88 for the second.

First: MDDDYEAYHSLFVSLL
Second: MDDDYEAYHSLKLSLL
The hit_pair_ratio of the first is higher: 37.55 for the first, 30.72 for the second.

Going from MDDDYEAYHSLSLSLL to MDDDYEAYHSLYLSLL, the hit_pair_ratio falls from 337.92 to 1.65.

MDDDYEAYHSMFLSLL and MDDDYEAYHSNFLSLL are the same in hit_pair_ratio: 168.96 for the first, 168.96 for the second.

First: MDDDYEAYHSPFLSLL
Second: MDDDYEAYHSRFLSLL
The hit_pair_ratio of the first is lower: 169.63 for the first, 172.84 for the second.

Going from MDDDYEAYHTLFLSLL to MDDDYEAYHVLFLSLL, the hit_pair_ratio falls from 169.63 to 37.55.

First: MDDDYEAYHWLFLSLL
Second: MDDDYEAYHYLFLSLL
The hit_pair_ratio of the first is lower: 1.50 for the first, 1.94 for the second.

Going from MDDDYEAYISLFLSLL to MDDDYEAYKSLFLSLL, the hit_pair_ratio rises from 13.00 to 84.48.

First: MDDDYEAYLSLFLSLL
Second: MDDDYEAYNSLFLSLL
The hit_pair_ratio of the first is lower: 22.58 for the first, 169.63 for the second.

Compared with MDDDYEAYQSLFLSLL, MDDDYEAYSSLFLSLL is higher in hit_pair_ratio: 28.27 for the first, 33.87 for the second.

Compared with MDDDYEAYWSLFLSLL, MDDDYEAYYSLFLSLL is lower in hit_pair_ratio: 28.16 for the first, 24.06 for the second.

First: MDDDYEWYHSLFLSLL
Second: MDDDYEYYHSLFLSLL
The hit_pair_ratio of the first is lower: 1.12 for the first, 2.04 for the second.
